Test results: patent US20190233884A1 (University of Southern California, priority 2016, published 2019)

System: patients with refractory metastatic colorectal cancer (mCRC)
Assay: PFS, OS and disease control in the training (evaluation) cohort of refractory mCRC patients receiving TAS-102 (n=52, Japan), by baseline characteristics, SNP genotype and toxicity
Type: in vivo, human
Conditions: for OS (median) / PFS (median): evaluation cohort (JPN TAS-102); for Disease Control CR/PR/SD, patients n (%) / Median OS (95% CI) / Median PFS (95% CI) / PD, patients n (%) / HR OS (95% CI) / HR PFS (95% CI) / Disease Control Rate SD, patients n (%): evaluation cohort
Protocol: All patients underwent the treatment in salvage-line setting. […]
(§1) Genomic DNA was extracted from peripheral whole blood in patients of all cohorts using the QIAmp Kit (Qiagen, Valencia, Calif., USA) according to the manufacturer's protocol (www.qiagen.com). The candidate SNPs were genotyped using PCR-based direct DNA sequence analysis by ABI 3100A Capillary Genetic Analyzer and Sequencing Scanner v1.0 (Applied Biosystems). Amplification of extracted DNA was carried out using both forward and reverse primers for each gene polymorphism as shown in Table 1. […] The investigators analyzing SNPs were blinded to the clinical data of the study patients.
The primary endpoint in this study was progression-free survival (PFS), and the secondary endpoints were overall survival (OS) and disease control rate (DCR). PFS was calculated from the date of starting treatment to the first observation of disease progression or death from any cause. If a patient had no disease progression or death, PFS was censored at the date of last follow up. OS was calculated from the date of starting treatment until the date of death from any cause or the date of the last follow-up, at which point OS was censored. The disease control rate (DCR) was defined as the proportion of patients who achieved a stable disease (SD) or […] according to RECISTv1.1. Chi-square test was used to examine the difference in baseline patient characteristics among the three cohorts. Allelic distribution of all SNPs by ethnicity for deviation from Hardy-Weinberg equilibrium and the allelic frequencies of SNPs were tested using the Chi-square tests with one degree of freedom. The associations between candidate SNPs and disease control, and toxicities were examined using contingency tables and Fisher's exact test. The associations of SNPs with PFS and OS were analysed using Kaplan-Meier curves and the log-rank test. Because the true mode of inheritance of candidate SNPs was not established yet, a codominant or dominant genetic model if appropriate was considered.
All patients underwent the treatment in salvage-line setting. […] In all patients, adverse events were graded according to the Common Terminology Criteria for Adverse Events, version 4.0. […]
as §1, with “tested” for “genotyped”, “Biosystems).” for “Biosystems). Amplification of extracted DNA was carried out using both forward and reverse primers for each gene polymorphism as shown in Table 1.”, “data.” for “data of the study patients.”
The primary endpoint in this study was progression-free survival (PFS), and the secondary endpoints were overall survival (OS) and disease control rate (DCR).

[1] = PCNA rs25406 G/A vs G/G, univariate
[2] = Pin1 rs2233678 G/C vs G/G, multivariable
[3] = Pin1 rs2233678 G/C vs G/G, univariate
[4] = Pin1 rs2233679 Any T vs C/C, multivariable
[5] = Pin1 rs2233679 Any T vs C/C, univariate
[6] = Pin1 rs2233679 C/T vs C/C, multivariable
[7] = Pin1 rs2233679 C/T vs C/C, univariate
[8] = Pin1 rs2233679 T/T vs C/C, multivariable
[9] = Pin1 rs2233679 T/T vs C/C, univariate
[10] = RAD51 rs1801320 G/C vs G/G, multivariable
[11] = RAD51 rs1801320 G/C vs G/G, univariate
[12] = ATM rs609429 Any G vs C/C (Ref.), multivariable
[13] = ATM rs609429 Any G vs C/C (Ref.), univariate
[14] = ATM rs609429 G/C vs C/C (Ref.), multivariable
[15] = ATM rs609429 G/C vs C/C (Ref.), univariate
[16] = ATM rs609429 G/G vs C/C (Ref.), multivariable
[17] = ATM rs609429 G/G vs C/C (Ref.), univariate

Trifluridine/tipiracil [TAS-102]
OS HR (95% CI)† [1]: 0.62 (0.22, 1.71)
PFS HR (95% CI) † [1]: 0.68 (0.32, 1.41)
OS median, months (95% CI) (PCNA rs25406 G/G): 8.3 (2.7, 14.8+) months
PFS median, months (95% CI) (PCNA rs25406 G/G): 2.1 (1.6, 4.2) months
OS median, months (95% CI) (Pin1 rs2233678 G/C): 4.2 (2.7, 5.7+) months
PFS median, months (95% CI) (Pin1 rs2233678 G/C): 1.7 (1.6, 1.8+) months
OS HR (95% CI)‡ [2]: 7.21 (1.47, 35.33)
PFS HR (95% CI) ‡ [2]: 5.08 (1.11, 23.23)
OS HR (95% CI)† [3]: 4.23 (0.92, 19.42)
PFS HR (95% CI) † [3]: 3.66 (0.79, 16.99)
OS median, months (95% CI) (Pin1 rs2233678 G/G): 8.3 (6.3, 15.6+) months
PFS median, months (95% CI) (Pin1 rs2233678 G/G): 2.9 (2.1, 3.4) months
OS median, months (95% CI) (Pin1 rs2233679 Any T): 8.3 (6.3, 14.8+) months
PFS median, months (95% CI) (Pin1 rs2233679 Any T): 3.3 (1.8, 3.7) months
OS HR (95% CI)‡ [4]: 1.05 (0.43, 2.54)
PFS HR (95% CI) ‡ [4]: 1.01 (0.53, 1.94)
OS HR (95% CI)† [5]: 0.95 (0.40, 2.26)
PFS HR (95% CI) † [5]: 0.84 (0.45, 1.57)
OS median, months (95% CI) (Pin1 rs2233679 C/C): 7.2 (4.9, 15.6+) months
PFS median, months (95% CI) (Pin1 rs2233679 C/C): 2.3 (1.8, 3.4) months
OS median, months (95% CI) (Pin1 rs2233679 C/T): 8.3 (6.3, 12.4+) months
PFS median, months (95% CI) (Pin1 rs2233679 C/T): 2.9 (1.8, 3.7) months
OS HR (95% CI)‡ [6]: 1.04 (0.41, 2.64)
PFS HR (95% CI) ‡ [6]: 1.03 (0.52, 2.03)
OS HR (95% CI)† [7]: 1.05 (0.41, 2.65)
PFS HR (95% CI) † [7]: 0.90 (0.46, 1.75)
OS median, months (95% CI) (Pin1 rs2233679 T/T): 8.1 (3.1, 14.8+) months
PFS median, months (95% CI) (Pin1 rs2233679 T/T): 3.4 (1.6, 4.6) months
OS HR (95% CI)‡ [8]: 1.08 (0.24, 4.91)
PFS HR (95% CI) ‡ [8]: 0.95 (0.34, 2.67)
OS HR (95% CI)† [9]: 0.74 (0.20, 2.75)
PFS HR (95% CI) † [9]: 0.70 (0.28, 1.79)
OS median, months (95% CI) (RAD51 rs1801320 G/C): 6.3 (1.4, 8.4+) months
PFS median, months (95% CI) (RAD51 rs1801320 G/C): 3.2 (0.9, 3.4) months
OS HR (95% CI)‡ [10]: 2.28 (0.81, 6.48)
PFS HR (95% CI) ‡ [10]: 1.34 (0.60, 3.00)
OS HR (95% CI)† [11]: 2.19 (0.78, 6.14)
PFS HR (95% CI) † [11]: 1.57 (0.70, 3.50)
OS median, months (95% CI) (RAD51 rs1801320 G/G): 8.3 (5.7, 15.6+) months
PFS median, months (95% CI) (RAD51 rs1801320 G/G): 2.5 (2.0, 4.1) months
PFS (TAS-102 cohort n=52, combined hENT1 and OCT2/MATE1 variants: poor (11)): 47.0 days
PFS (combined hENT1 and OCT2/MATE1 analysis: overall (52)): 80 days
PFS (combined hENT1 and OCT2/MATE1 variants: excellent (21)): 104.0 days
PFS (combined hENT1 and OCT2/MATE1 variants: fair (16)): 62.0 days
PFS (combined hENT1 and OCT2/MATE1 variants: good (4)): 80 days
OS (median) (ATM rs609429 C/C (n=14)): 4.4 months
OS (median) (ATM rs609429 any G allele (G/C or G/G, n=38)): 8.7 months
PFS (median) (XRCC3 rs861539 G/A (n=17)): 3.8 months
PFS (median) (XRCC3 rs861539 G/G (n=35)): 2.3 months
Disease Control CR/PR/SD, patients n (%) (ATM rs609429 Any G): 10 (29%)
Median OS (95% CI) (ATM rs609429 Any G): 8.7 (6.3, 15.6+) months
Median PFS (95% CI) (ATM rs609429 Any G): 2.7 (2.1, 3.4) months
PD, patients n (%) (ATM rs609429 Any G): 25 (71%)
HR OS (95% CI) [12]: 0.24 (0.07, 0.80)
HR PFS (95% CI) [12]: 1.37 (0.57, 3.26)
HR OS (95% CI) [13]: 0.37 (0.14, 0.99)
HR PFS (95% CI) [13]: 1.53 (0.70, 3.35)
Disease Control CR/PR/SD, patients n (%) (ATM rs609429 C/C): 5 (45%)
Median OS (95% CI) (ATM rs609429 C/C): 4.4 (3.1, 8.3+) months
Median PFS (95% CI) (ATM rs609429 C/C): 3.3 (1.6, 6.0+) months
PD, patients n (%) (ATM rs609429 C/C): 6 (55%)
Disease Control CR/PR/SD, patients n (%) (ATM rs609429 G/C): 8 (32%)
Median OS (95% CI) (ATM rs609429 G/C): 12.4 (6.3, 15.6+) months
Median PFS (95% CI) (ATM rs609429 G/C): 2.9 (1.8, 3.4) months
PD, patients n (%) (ATM rs609429 G/C): 17 (68%)
HR OS (95% CI) [14]: 0.19 (0.05, 0.68)
HR PFS (95% CI) [14]: 1.30 (0.53, 3.19)
HR OS (95% CI) [15]: 0.32 (0.11, 0.91)
HR PFS (95% CI) [15]: 1.53 (0.68, 3.43)
Disease Control CR/PR/SD, patients n (%) (ATM rs609429 G/G): 2 (20%)
Median OS (95% CI) (ATM rs609429 G/G): 8.7 (1.2, 14.8+) months
Median PFS (95% CI) (ATM rs609429 G/G): 2.6 (1.2, 4.1) months
PD, patients n (%) (ATM rs609429 G/G): 8 (80%)
HR OS (95% CI) [16]: 0.39 (0.10, 1.54)
HR PFS (95% CI) [16]: 1.56 (0.56, 4.37)
HR OS (95% CI) [17]: 0.52 (0.16, 1.73)
HR PFS (95% CI) [17]: 1.55 (0.59, 4.04)
Disease Control Rate SD, patients n (%) (ATR rs2227928 A/A): 3 (20%)
PD, patients n (%) (ATR rs2227928 A/A): 12 (80%)
Disease Control Rate SD, patients n (%) (ATR rs2227928 A/G): 7 (32%)
PD, patients n (%) (ATR rs2227928 A/G): 15 (68%)
Disease Control Rate SD, patients n (%) (ATR rs2227928 Any G): 12 (39%)
PD, patients n (%) (ATR rs2227928 Any G): 19 (61%)
Disease Control Rate SD, patients n (%) (ATR rs2227928 G/G): 5 (56%)
PD, patients n (%) (ATR rs2227928 G/G): 4 (44%)
Disease Control Rate SD, patients n (%) (BRCA1 rs16941 Any C): 8 (30%)
PD, patients n (%) (BRCA1 rs16941 Any C): 19 (70%)
Disease Control Rate SD, patients n (%) (BRCA1 rs16941 C/C): 1 (20%)
PD, patients n (%) (BRCA1 rs16941 C/C): 4 (80%)
Disease Control Rate SD, patients n (%) (BRCA1 rs16941 T/C): 7 (32%)
